Experiment [1] deals with KRAS G12D/SOS/c-Raf complex (Homo sapiens (Human), UniProt P01116, G12D). Put plainly: KRAS G12D/SOS/c-Raf complex formation inhibitory activity (TR-FRET). Type of experiment: biochemical. Particulars: human recombinant proteins, 1 hour at room temperature, read-out: IC50, KRAS G12D/SOS/c-Raf complex formation inhibition. The method, then:
Using human recombinant KRAS G12D, SOS and c-Raf proteins, the inhibitory activity of subject compounds on the complex formation of the proteins was examined by a time-resolved fluorescence resonance energy transfer (TR-FRET) method.
Biotinylated AviTag-KRAS G12D (amino acid region of 1-185, GDP) (2.5 μL; 400 nM) and subject compounds dissolved in an assay buffer (50 mM HEPES, 150 mM NaCl, 5 mM MgCl2, 0.05% Tween 20, pH 7.0) were added to a 384-well plate (from Corning) in a liquid volume of 2.5 μL at 40,000 nM to 40 nM. Son of Sevenless (SOS) (amino acid region of 564-1049, 2.5 μL; 1.3 μM) and c-Raf (amino acid region of 51-131) GST (2.5 μL; 130 nM) containing GTP (from Sigma-Aldrich; 2 μM) were added to the plate, and the plate was allowed to stand for 1 hour at room temperature. Then, a mixture liquid (10 μL) of LANCE Ulight-anti-GST (from PerkinElmer; 120 nM) and LANCE Eu-W1024 labeled Streptoavidin (from PerkinElmer; 100 ng/mL) was added, and the 620-nm and 665-nm fluorescence intensities were measured using EnVision 2104 (from PerkinElmer) under the conditions of an excitation wavelength of 337 nm. After standardizing the values with the fluorescence intensity at a reference wavelength of 620 nm, the 50% inhibitory concentrations (IC50) were calculated by Sigmoid-Emax model nonlinear regression analysis with the signaling value in treatment with the solvent taken as 0% inhibition and with the signaling value without the addition of GTP taken as 100% inhibition.

The subject of experiment [2] is KRAS G12D mutant-positive pancreatic cancer line AsPC-1. Description: Non-anchorage-dependent cell growth inhibitory activity in AsPC-1 (spheroid 3D culture). The class given is cell-based. Particulars: Homo sapiens, ASPC1, 144 h, read-out: IC50, non-anchorage-dependent cell growth inhibition. Here is the method: The non-anchorage-dependent cell growth inhibitory activities of subject compounds were evaluated by spheroid 3D cell culture.
AsPC-1 cells were seeded at 36 μL/well on a low-cell-adhesive round bottom 384-well plate (Prime Surface: from Sumitomo Bakelite) to give 5×10^2 cells per well. The cell culture was performed under the same conditions as in the Test Example 2.
The next day, the subject compounds (6 points having final concentrations in the range of 10 μM to 3.0 nM) and DMSO, which was the solvent for the subject compounds, as a negative control were diluted 100-fold with a fresh medium and were each added at 4 μL per well. After culturing in the presence of 5% CO2 at 37° C. for six days, CellTiter Glo 2.0 (from Promega) was added at 20 μL per well. After stirring with a plate mixer (from FINEPCR) at normal temperature for an hour, the luminescent signals were measured with ARVO X3 (from PerkinElmer).
With the signaling value in treatment with DMSO taken as 0% inhibition and with the signaling value in the medium alone without cells taken as 100% inhibition, the 50% inhibition values (IC50) were calculated by Sigmoid-Emax model nonlinear regression analysis.

Experiment [3] concerns ERK phosphorylation (Thr202/Tyr204) in KRAS G12D mutant-positive pancreatic cancer line AsPC-1. Put plainly: ERK phosphorylation inhibitory activity in AsPC-1 (cell ELISA). Type of experiment: cell-based. Particulars: Homo sapiens, ASPC1; AsPC-1 cells, 2 hours culture, cell ELISA; read-out: IC50, ERK phosphorylation inhibition. Here is the method:
The ERK phosphorylation inhibitory activities of subject compounds were evaluated by measuring phosphorylation of the 202th threonine (Thr202) and the 204th tyrosine (Tyr204) of ERK located downstream of the KRAS signal by cell ELISA.
AsPC-1 cells (ATCC, CRL-1682) were seeded at 36 μL/well on a 384-well plate (from Greiner bio-one) to give 2.0×10^4 cells per well. As for the cell culture conditions, RPMI-1640 medium (from Sigma-Aldrich) containing 10% fetal bovine serum (from GE Life Sciences) was used in the presence of 5% CO2 at 37° C.
The next day, the subject compounds (6 points having final concentrations in the range of 10 μM to 0.3 nM), trametinib (MEK inhibitor) of a final concentration of 1 μM as a positive control and DMSO, which was the solvent for the subject compounds, as a negative control were diluted 100-fold with a fresh medium and were each added at 4 μL per well, followed by culturing for 2 hours. After culturing, a 30% glyoxal solution (40% glyoxal [from Wako] was diluted with Phosphate Buffered Saline [PBS; from Wako) was quickly added at 30 μL per well, and the plate was allowed to stand for an hour at room temperature to thus immobilize the cells. Then, the plate was centrifuged (110× g, seven seconds, hereinafter centrifugation was performed under the same conditions unless otherwise specified) to remove the supernatant, and 0.1% Triton X-100 (from Amersham Biosciences)—containing PBS was added at 20 μL per well. After allowing the plate to stand for 10 minutes at room temperature, the supernatant was removed by centrifugation, and the same operation was further repeated. Next, 0.5% sodium dodecyl sulfate (SDS; from Invitrogen)-containing PBS was added at 20 μL per well. The plate was allowed to stand at room temperature for 30 minutes and was then centrifuged to remove the supernatant. Subsequently, a blocking solution (Intercept Blocking Buffer; from LI-COR Biosciences) was added at 20 μL per well, and the plate was allowed to stand for an hour at room temperature. The supernatant was removed by centrifugation, and an ERK (Thr202/Tyr204) phosphorylation antibody (Phospho-p44/42 MAPK (Erk 1/2) (Thr202/Tyr204) (D13.14.4E) XP Rabbit mAb; from Cell Signaling Technology) diluted 2,500-fold with the blocking solution was added at 10 μL per well as a primary antibody. The plate was allowed to stand at 4° C. overnight.
The next day, the plate was centrifuged to remove the supernatant, and 0.05% Tween-20-containing PBS (from Thermo Scientific; 20× PBS Tween-20 was diluted 20-fold with ion exchange water and used) was added at 20 μL per well. The supernatant was removed by centrifugation to thus wash each well. The washing was performed three times in total. After washing, an IRDye 800CW Goat anti-Rabbit IgG (from LI-COR Biosciences) diluted 1,000-fold with the blocking solution was added at 10 μL per well as a secondary antibody, and the plate was allowed to stand for an hour at room temperature. The plate was centrifuged to remove the supernatant, and each well was washed three times with 0.05% Tween-20-containing PBS in the same manner as after the primary antibody reaction. Centrifugation after the third washing was performed at 171×g for 17 seconds. After removing the supernatant, the plate was dried as it was with air at room temperature for three hours or more, and the 800-nm fluorescent signals were measured with Aerius (from LI-COR Biosciences).
With the signaling value at the time of addition of DMSO taken as 0% inhibition and with the signaling value at the time of addition of […] trametinib taken as 100% inhibition, the 50% inhibition values (IC50) were calculated by Sigmoid-Emax model nonlinear regression analysis.

[4] abbreviates: AsPC-1 spheroid 3D culture, six days, CellTiter Glo 2.0.

SMILES strings stand for the structures. Read-outs that look alike come from different tables or passages of the source.

KRAS G12D/SOS/c-Raf complex, sequence (P01116 other isoform, or with tags, fused parts or gaps G12D): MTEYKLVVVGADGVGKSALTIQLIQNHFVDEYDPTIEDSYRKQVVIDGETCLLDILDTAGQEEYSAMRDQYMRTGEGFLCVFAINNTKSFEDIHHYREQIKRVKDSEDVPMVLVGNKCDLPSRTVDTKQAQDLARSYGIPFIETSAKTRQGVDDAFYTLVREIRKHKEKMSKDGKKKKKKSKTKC

As to `Cc1c(F)cc2[nH]ncc2c1-c1c(C2CC2)cc2c(N3C[C@@H]4C[C@H]3CN4)nc(OC3CCOCC3)nc2c1OCc1ccc(Cn2c(=O)n(C)c3nccnc32)cc1` (single isomer, unassigned) [Example 1], the IC50 in experiment [1] is 44 nM; in experiment [2] (setting [4]) it was 68 nM.
Consider `Cc1c(F)cc2[nH]ncc2c1-c1c(C2CC2)cc2c(N3C[C@@H]4C[C@H]3CN4)nc(OC3CCOCC3)nc2c1OCc1ccc(CN2CCN(C)CC2=O)cc1` [Example 2, 1-({4-[({6-cyclopropyl-4-[(1S,4S)-2,5-diazabicyclo[2.2.1]heptan-2-yl]-7-(6-fluoro-5-methyl-1H-indazol-4-yl)-2-[(oxan-4-yl)oxy]quinazolin-8-yl}oxy)methyl]phenyl}methyl)-4-methylpiperazin-2-one], for which the IC50 in experiment [1] stood at 96 nM; in experiment [3] it was 49 nM; in experiment [2] (setting [4]), 166 nM.
As to `Cc1c(F)cc2[nH]ncc2c1-c1c(C2CC2)cc2c(N3C[C@@H]4C[C@H]3CN4)nc(OC3CCOCC3)nc2c1OCc1ccc(Cc2ncn(C3COC3)n2)cc1` [Example 3, 6-cyclopropyl-4-[(1S,4S)-2,5-diazabicyclo[2.2.1]heptan-2-yl]-7-(6-fluoro-5-methyl-1H-indazol-4-yl)-2-[(oxan-4-yl)oxy]-8-[(4-{[1-(oxetan-3-yl)-1H-1,2,4-triazol-3-yl]methyl}phenyl)methoxy]quinazoline], the IC50 was determined as 75 nM in experiment [1], 55 nM in experiment [3] and 128 nM in experiment [2] (setting [4]).
Consider `Cc1c(F)cc2[nH]ncc2c1-c1c(C2CC2)cc2c(N3C[C@@H]4C[C@H]3CN4)nc(OC3CCOCC3)nc2c1OCc1ccc(CN2CCN(CC3CC3)CC2=O)cc1` [Example 7, 1-({4-[({6-cyclopropyl-4-[(1S,4S)-2,5-diazabicyclo[2.2.1]heptan-2-yl]-7-(6-fluoro-5-methyl-1H-indazol-4-yl)-2-[(oxan-4-yl)oxy]quinazolin-8-yl}oxy)methyl]phenyl}methyl)-4-(cyclopropylmethyl)piperazin-2-one], for which the IC50 in experiment [1] stood at 105 nM; in experiment [2] it was 80 nM.
The matching figures for `CCc1nc(Cc2ccc(COc3c(-c4c(C)c(F)cc5[nH]ncc45)c(C4CC4)cc4c(N5C[C@@H]6C[C@H]5CN6)nc(OC5CCOCC5)nc34)cc2)nn1C` [Example 15, 6-cyclopropyl-4-[(1S,4S)-2,5-diazabicyclo[2.2.1]heptan-2-yl]-8-({4-[(5-ethyl-1-methyl-1H-1,2,4-triazol-3-yl)methyl]phenyl}methoxy)-7-(6-fluoro-5-methyl-1H-indazol-4-yl)-2-[(oxan-4-yl)oxy]quinazoline]: 88 nM and 152 nM.
As to `Cc1c(F)cc2[nH]ncc2c1-c1c(C2CC2)cc2c(N3C[C@@H]4C[C@H]3CN4)nc(OC3CCOCC3)nc2c1OCc1ccc(Cc2nc3n(n2)CCC3)cc1` [Example 18, 6-cyclopropyl-4-[(1S,4S)-2,5-diazabicyclo[2.2.1]heptan-2-yl]-8-({4-[(6,7-dihydro-5H-pyrrolo[1,2-b][1,2,4]triazol-2-yl)methyl]phenyl}methoxy)-7-(6-fluoro-5-methyl-1H-indazol-4-yl)-2-[(oxan-4-yl)oxy]quinazoline], the IC50 was determined as 92 nM in experiment [1] and 192 nM in experiment [2].
Take `Cc1c(F)cc2[nH]ncc2c1-c1c(C2CC2)cc2c(N3C[C@@H]4C[C@H]3CN4)nc(OC3CCOCC3)nc2c1OCc1ccc(Cc2ncn(C3CCOCC3)n2)cc1` [Example 19, 6-cyclopropyl-4-[(1S,4S)-2,5-diazabicyclo[2.2.1]heptan-2-yl]-7-(6-fluoro-5-methyl-1H-indazol-4-yl)-2-[(oxan-4-yl)oxy]-8-[(4-{[1-(oxan-4-yl)-1H-1,2,4-triazol-3-yl]methyl}phenyl)methoxy]quinazoline]: the IC50 was 65 nM in experiment [1] and 189 nM in experiment [2].
For `Cc1c(F)cc2[nH]ncc2c1-c1c(C2CC2)cc2c(N3C[C@@H]4C[C@H]3CN4)nc(OC3CCOCC3)nc2c1OCc1ccc(Cc2cn3ccncc3n2)cc1` [Example 20, 6-cyclopropyl-4-[(1S,4S)-2,5-diazabicyclo[2.2.1]heptan-2-yl]-7-(6-fluoro-5-methyl-1H-indazol-4-yl)-8-({4-[(imidazo[1,2-a]pyrazin-2-yl)methyl]phenyl}methoxy)-2-[(oxan-4-yl)oxy]quinazoline], the values for the IC50 in experiment [1] and in experiment [2] were 70 nM and 138 nM, respectively.
Take `Cc1c(F)cc2[nH]ncc2c1-c1c(C2CC2)cc2c(N3C[C@@H]4C[C@H]3CN4)nc(OC3CCOCC3)nc2c1OCc1ccc(Cc2nc(C3CC3)n(C)n2)cc1` [Example 22, 6-cyclopropyl-8-({4-[(5-cyclopropyl-1-methyl-1H-1,2,4-triazol-3-yl)methyl]phenyl}methoxy)-4-[(1 S,4S)-2,5-diazabicyclo[2.2.1]heptan-2-yl]-7-(6-fluoro-5-methyl-1H-indazol-4-yl)-2-[(oxan-4-yl)oxy]quinazoline]: the IC50 amounted to 161 nM in experiment [1] and 209 nM in experiment [2] (setting [4]).
Turning to `Cc1c(F)cc2[nH]ncc2c1-c1c(C2CC2)cc2c(N3C[C@@H]4C[C@H]3CN4)nc(OC3CCOCC3)nc2c1OCc1ccc(CN2C(=O)CN(C)c3ncccc32)cc1` [Example 23, 1-({4-[({6-cyclopropyl-4-[(1S,4S)-2,5-diazabicyclo[2.2.1]heptan-2-yl]-7-(6-fluoro-5-methyl-1H-indazol-4-yl)-2-[(oxan-4-yl)oxy]quinazolin-8-yl}oxy)methyl]phenyl}methyl)-4-methyl-3,4-dihydropyrido[2,3-b]pyrazin-2(1H)-one], in experiment [1], the IC50 amounted to 68 nM.
